Experimental data from US20160205982A1, “LIFE ENHANCING BEVERAGES” (REOXCYN DISCOVERIES GROUP, INC., priority 2013, published 2016).

Experiments:
[1] = tested on: phosphorylated proteins (extra-nuclear fraction); test: Western blot of protein phosphorylation in extra-nuclear fraction of HMVEC-L; type: cell-based, human; settings: H2O2 treatment
Protocol: (§1) 8. A Western Blot analysis was done on extra-nuclear and intra-nuclear fractions, separated by differential centrifugation, of serum starved HMVEC-L cell cultures exposed to <1% ASEA compared with a positive hydrogen peroxide control to determine phosphorylation events (oxidant action) in the extra-nuclear fraction and NRF2 (antioxidant transcription) in the intra-nuclear fraction at 0, 30, 60, 90 and 120 min. intervals.
(§2) Experimental Methods for Western Blot Validation of NRF2 Nuclear Accumulation: HMVEC-L were treated with 1% ASEA, nuclear extracts were separated through centrifugal differentiation from the extra-nuclear cytosol at 30, 60 and 120 min and subjected to Western Blot analysis for NRF2. In the Western blot experiment the extra-nuclear fraction was probed for phosphorylated proteins using a combination of anti-phospho serine, threonine and tyrosine antibodies. Virtually all cellular processes are regulated by posttranslational modifications and protein phosphorylation is a prevalent mechanism. Observable changes in protein phosphorylation can lead to a mechanistic understanding of the cellular processes perturbed by ASEA and provide a defined endpoint to better define dose-dependent regulation of cell function by ASEA in vitro, as well as provide a potential candidate molecular marker that may be used to provide in vitro-in vivo correlates. […]

NRF2 = test: Western blot of NRF2 in nuclear extracts of HMVEC-L; type: cell-based, human; settings: H2O2 30 min, positive control
Protocol: as §1, §2

## OO [H2O2, Hydrogen peroxide]
[1]
  phosphorylation of the protein detected in extra-nuclear fraction: marked increase
NRF2
  NRF2 levels in nuclear extracts: did not increase
